SMILES strings stand for the structures. ≈ marks a conversion by molar mass, not a printed value.

Data set [1] can be described thus: Kinetic solubility of the compound at pH 7.4. It is filed as physicochemical. The note with it: buffer, read-out: Kinetic_solubility.
Data set [2] in a line: Metabolic stability in mouse liver microsomes assessed as intrinsic clearance. It is filed as ADME, Microsome. The note with it: read-out: CLH.
Data set [3] is described as follows: Kinetic solubility of the compound at pH 2. The note with it: buffer, read-out: Kinetic_solubility. It is filed as physicochemical.
Data set [4] in a line: Metabolic stability in human liver microsomes assessed as intrinsic clearance. As to conditions: read-out: CLH. It is filed as ADME, Microsome.
Data set [5] in a line: AUCinfinity in CD1 mouse at 10 mg/kg, po measured upto 24 hrs. It is filed as ADME, organism-based. Set-up: route oral, dose 10 mg/kg, time <=24. The note with it: in vivo.
Data set [6] is described as follows: Unbound intrinsic clearance in CD1 mouse plasma at 0.3 mg/kg, iv measured upto 8 hrs. As to conditions: in vivo. It is filed as ADME, organism-based.
Data set [7] in a line: Oral bioavailability in CD1 mouse at 10 mg/kg measured upto 24 hrs. As to conditions: in vivo. It is filed as ADME, organism-based.
Data set [8] can be described thus: Half life in CD1 mouse plasma at 0.3 mg/kg, iv measured upto 8 hrs. The class given is ADME, organism-based.

With `CN(C)c1noc(-c2cccc(CNc3cnc4nn[nH]c4c3)c2O)n1`, the solubility kinetic in data set [1] is 0.59 µM (≈ 0.208 µg/mL); in data set [3] it was 0.53 µM (≈ 0.187 µg/mL). The CLint scaled in data set [2] was 1210 mL/min/kg; in data set [4], 55.5 mL/min/kg.

`CC(C)c1noc(-c2cccc(CNc3ccc4[nH]nc(C(=O)O)c4c3)c2O)n1`: the solubility kinetic was determined as 227 µM (≈ 89.3 µg/mL) in data set [1] and 11 µM (≈ 4.33 µg/mL) in data set [3]. The AUC(0-inf) in data set [5] was determined as 0.46 µM·h. Besides, the CL free in data set [6] was determined as 5436 mL/min/kg. Also, the CLint scaled in data set [2] was 38.1 mL/min/kg; in data set [4], 2.4 mL/min/kg. The compound also came in with a bioavailability in data set [7] of 2%. The half-life in data set [8] was 0.4 h.

Turning to `CC(C)c1csc(-c2cccc(CN(C)c3ccc4[nH]nc(C(=O)O)c4c3)c2O)n1`, the solubility kinetic in data set [1] was found to be 6 µM (≈ 2.54 µg/mL); in data set [3], 175 µM (≈ 73.9 µg/mL). Besides, in data set [2], the CLint scaled was 13 mL/min/kg.

With `CN(C)c1noc(-c2cccc(CNc3ccc4[nH]nc(C(=O)O)c4c3)c2O)n1`, the figures for the solubility kinetic in data set [1] and in data set [3] were 157 µM (≈ 61.9 µg/mL) and 0.4 µM (≈ 0.158 µg/mL), respectively. The compound further displayed an AUC(0-inf) in data set [5] of 11.2 µM·h. In data set [6], this compound yielded a CL free of 447 mL/min/kg. In addition, the CLint scaled in data set [2] came out at 28.6 mL/min/kg; in data set [4] it was 6.9 mL/min/kg. In data set [7], this compound showed a bioavailability of 6%. Further, the half-life in data set [8] was 1.8 h.

With `CC(C)c1csc(-c2cccc(CNc3ccc4[nH]nc(C(=O)O)c4c3)c2O)n1`, the figures for the solubility kinetic in data set [1] and in data set [3] were 102 µM (≈ 41.7 µg/mL) and 97 µM (≈ 39.6 µg/mL), respectively. Also, the CLint scaled in data set [2] came to 8 mL/min/kg; in data set [4], 10 mL/min/kg.

Consider `Cc1nc(-c2cccc(CNc3ccc4[nH]nc(C(=O)O)c4c3)c2O)sc1C`, for which the solubility kinetic came to 15 µM (≈ 5.92 µg/mL) in data set [1] and 20 µM (≈ 7.89 µg/mL) in data set [3]. The compound also returned an AUC(0-inf) in data set [5] of 46.1 µM·h. The same compound yielded a CL free in data set [6] of 4500 mL/min/kg. Besides, the CLint scaled in data set [2] came out at 15 mL/min/kg; in data set [4], 21 mL/min/kg. This compound displayed a bioavailability in data set [7] of 19%. In data set [8], this compound had a half-life of 3.3 h.

Regarding `CN(C)c1noc(-c2cccc(CNc3ccc4[nH]nc(C(=O)O)c4c3)c2)n1`, the solubility kinetic in data set [1] was found to be 255 µM (≈ 96.5 µg/mL); in data set [3], 308 µM (≈ 117 µg/mL). In addition, the CLint scaled is 2.9 mL/min/kg in data set [2] and 0.5 mL/min/kg in data set [4].

Regarding `Cc1nc(-c2cccc(CN(C)c3ccc4[nH]nc(C(=O)O)c4c3)c2)sc1C`, the solubility kinetic in data set [1] came out at 254 µM (≈ 99.7 µg/mL); in data set [3], 276 µM (≈ 108 µg/mL). In addition, in data set [2], the CLint scaled was 45 mL/min/kg.

For the compound `CN(C)c1noc(-c2cccc(CNc3ccc4[nH]nc(C(=O)O)c4c3)c2Cl)n1`, the solubility kinetic in data set [1] came to 296 µM (≈ 122 µg/mL); in data set [3] it was 7 µM (≈ 2.89 µg/mL). For the same compound, the CLint scaled in data set [2] came to 12 mL/min/kg; in data set [4], 5.8 mL/min/kg.

On to `Cc1csc(-c2cccc(CNc3ccc4[nH]nc(C(=O)O)c4c3)c2O)n1`, for which the solubility kinetic in data set [1] was determined as 44 µM (≈ 16.7 µg/mL); in data set [3], 5 µM (≈ 1.9 µg/mL). In addition, the CLint scaled in data set [2] turned out to be 34 mL/min/kg.

`CN(C)c1noc(-c2cccc(CN(C)c3ccc4[nH]nc(C(=O)O)c4c3)c2O)n1`: the solubility kinetic was determined as 135 µM (≈ 55.1 µg/mL) in data set [1] and 16 µM (≈ 6.53 µg/mL) in data set [3]. The AUC(0-inf) in data set [5] is 6.8 µM·h. In addition, the CL free in data set [6] was 2444 mL/min/kg. Moreover, the CLint scaled in data set [2] was 46 mL/min/kg; in data set [4], 14 mL/min/kg. Also, the bioavailability in data set [7] stood at 4%. The compound further showed a half-life in data set [8] of 3.3 h.

On to `CC(C)c1coc(-c2cccc(CNc3ccc4[nH]nc(C(=O)O)c4c3)c2O)n1`, for which the values for the solubility kinetic in data set [1] and in data set [3] were 229 µM (≈ 89.9 µg/mL) and 4 µM (≈ 1.57 µg/mL), respectively. Moreover, in data set [2], the CLint scaled is 84 mL/min/kg.

The values above are taken from ChEMBL document CHEMBL5036313, “Discovery of Novel, Potent Inhibitors of Hydroxy Acid Oxidase 1 (HAO1) Using DNA-Encoded Chemical Library Screening” (J Med Chem, 2021).
